The text below walks through data of patent US7060490B1, “DNA encoding novel estrogen receptor” (Akzo Nobel N.V., priority 1996, dated 2006).

For one assay, the target named is T1, ERα (Homo sapiens, UniProt P03372).
T1 construct: expressed in transfected cells
The assay can be described thus: Transactivation assay in stably transfected CHO cell line expressing ERα with rat oxytocin-luciferase reporter. The assay is classed as cell-based. The settings on record: stably transfected CHO cell lines ERα vs ERβ; agonist curves FIGS. 5A, 5B.

The target of a further assay is ERβ (Homo sapiens, UniProt Q92731). The assay can be described thus: Transient transfection transactivation assay, rat oxytocin promoter-luciferase reporter in CHO cells, ERβ.

Structures are written as SMILES.

Chain of ERβ (Q92731 whole entry): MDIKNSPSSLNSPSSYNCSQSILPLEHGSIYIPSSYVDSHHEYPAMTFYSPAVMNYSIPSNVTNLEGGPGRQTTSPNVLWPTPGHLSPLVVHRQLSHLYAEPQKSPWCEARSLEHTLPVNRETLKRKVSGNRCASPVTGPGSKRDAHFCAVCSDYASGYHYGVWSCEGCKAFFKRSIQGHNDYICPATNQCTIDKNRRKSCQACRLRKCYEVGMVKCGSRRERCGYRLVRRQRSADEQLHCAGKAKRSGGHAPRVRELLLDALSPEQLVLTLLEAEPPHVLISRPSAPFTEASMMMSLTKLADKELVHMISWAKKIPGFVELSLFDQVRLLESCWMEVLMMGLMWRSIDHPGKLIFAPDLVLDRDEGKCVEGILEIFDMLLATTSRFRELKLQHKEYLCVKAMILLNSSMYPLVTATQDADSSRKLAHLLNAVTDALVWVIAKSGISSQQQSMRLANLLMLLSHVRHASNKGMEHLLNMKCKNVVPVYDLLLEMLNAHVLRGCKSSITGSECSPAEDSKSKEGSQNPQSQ
T1 sequence (P03372 whole entry): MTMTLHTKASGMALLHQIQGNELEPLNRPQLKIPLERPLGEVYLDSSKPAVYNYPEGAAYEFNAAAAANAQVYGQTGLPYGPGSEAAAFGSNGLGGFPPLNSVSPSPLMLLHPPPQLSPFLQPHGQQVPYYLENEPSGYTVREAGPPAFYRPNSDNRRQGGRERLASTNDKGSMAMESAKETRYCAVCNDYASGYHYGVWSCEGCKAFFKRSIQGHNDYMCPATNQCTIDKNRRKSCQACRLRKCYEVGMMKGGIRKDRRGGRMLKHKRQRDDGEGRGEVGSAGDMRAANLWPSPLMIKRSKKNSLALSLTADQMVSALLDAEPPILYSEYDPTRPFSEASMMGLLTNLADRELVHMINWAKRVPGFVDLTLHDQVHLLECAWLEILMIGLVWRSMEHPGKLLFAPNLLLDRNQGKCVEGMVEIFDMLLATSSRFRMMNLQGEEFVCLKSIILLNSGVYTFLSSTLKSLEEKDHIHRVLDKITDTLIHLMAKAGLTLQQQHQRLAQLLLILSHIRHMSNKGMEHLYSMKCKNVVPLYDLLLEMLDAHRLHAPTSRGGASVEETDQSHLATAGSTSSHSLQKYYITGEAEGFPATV

Regarding `C#C[C@]1(O)CC[C@H]2[C@@H]3[C@H](C)CC4=C(CC[C@@H](O)C4)[C@H]3CC[C@@]21C` [Org4094], on ERα, the “concentration for half-maximal transactivation, ERα as compared to ERβ” value is on record as “much more pronounced”.

Consider `C[C@]12CC[C@@H]3c4ccc(O)cc4CC[C@H]3[C@@H]1CC[C@@H]2O` [17β-estradiol], for which, at ERβ (10^−9 mol/L 17β-estradiol, transient CHO, normalised for β-galactosidase, FIG. 3), the “stimulation of luciferase activity with ERβ” value was 7 fold. The “increase in luciferase activity as compared to untreated cells” value on ERβ (CHO cells transiently transfected with ERβ expression vector and reporter, hormones 10^−7 mol/L, FIG. 2) is listed as 3 to 4 fold.
